Results on 3 compounds are retold here after US20200393447A1, “BIOSENSORS FOR MEASURING CELL SIGNALING IN STRESSED AND HEALTHY CELLS” (MONTANA MOLECULAR LLC, priority 2017, published 2020).

Molecules are shown by their SMILES.

Format in all cases: cell-based
In data set [1] the test system is HEK293T cells. The data set is described as follows: RT-PCR of spliced/unspliced sensor mRNA (XBP1 intron splicing) after thapsigargin. The source says:
A second nucleic acid construct (SEQ ID NO: 6) was constructed and tested. This nucleic acid construct is a red fluorescent protein (RFP) with a nuclear localization sequence, placed upstream of the XBP1 intron sequence. A T2A peptide encoding sequence is placed after the RFP sequence. This is followed by a partial sequence from the endogenous XBP1 gene that encodes a region of the protein important for regulating its stability. This partial XBP1 sequence is fused to the mNeonGreen coding sequence. Upon stress activation the XBP1 intron sequence is removed, this removes a stop codon, shifts the reading frame, and allows for translation of the XBP1-mNeonGreen fusion construct. This construct was transfected into HEK293T cells, which were then treated with 1 μM thapsigargin or DMSO vehicle control to induce ER stress. Isolated mRNA from the treated cells was then analyzed for intron splicing using RT-PCR (see van Schadewijk et al., 2012).
(§1) HEK293T cells were transduced with 25 μL of the nucleic acid construct of SEQ ID NO: 6. The construct was transduced into 48,000 HEK293T cell in FluoroBrite media and the cells were incubated at 37° C. and 5% CO2 for 16 hours. A final concentration of 1 μM thapsigargin was added to the cells. For RT-PCR analysis a total of 2 μg of total RNA was isolated form 6 wells of cells grown on 96-well Greiner plates coated in poly-D-lysine. […] PCR products were then analyzed on a 2% agarose gel. […] All images were obtained using a Zeiss Axiovert fluorescence microscope with standard RFP and GFP excitation and emission filter sets. […] The media was supplemented with 25 mM HEPES and the cells were incubated in the BioTek Synergy MX plate reader at 37° C. for 24 hours. Green fluorescence was monitored using excitation and emission wavelengths of 485 nm and 528 nm respectively, while red fluorescence was monitored using 558 nm/603 nm excitation and emission wavelengths. […] The percentage of change in green, red, and green/red ratio fluorescence was then calculated.

Data set [2] concerns HEK293T cells. The data set is described as follows: Two-color stress sensor fluorescence monitored over 24 hours after thapsigargin. As to conditions: 1 μM vs DMSO, 24 hours monitoring. The procedure:
as §1, with “poly-D-lysine. RNA was isolated using the Zymo Quick RNA microprep kit according to the manufacturer's instructions. mRNA was converted to cDNA by reverse transcription using M-MLV reverse transcriptase from Promega and an oligo dT primer according to the manufacturer's instructions.” for “poly-D-lysine.”

The subject of data set [3] is HEK293T cells. The data set is described as follows: Multiplex Ca2+ biosensor (SEQ ID NO: 4) in cells stressed with thapsigargin, carbachol stimulation. The procedure:
In order to analyze the calcium response of cells exposed to an ER-stress inducing molecule, HEK293T cells transfected with the nucleic acid construct described in FIG. 1 were exposed to thapsigargin to induce ER stress. Thapsigargin is an inhibitor of the sarcoplasmic/endoplasmic reticulum Ca^2+ ATPase that inhibits the autophagic process and induces ER stress. The calcium signaling properties of the thapsigargin-treated cells was measured as described below. HEK293T cells were transfected with SEQ ID NO: 4 as follows. 27,000 cells per well in 100 μL of EMEM media were plated onto Greiner 96-well plates coated with poly-D lysine. The cells were incubated for 24 hours at 37° C. and 5% CO2. 100 ng of plasmid DNA expressing SEQ ID NO: 4 and 10 ng of plasmid expressing human muscarinic receptor 1 were then transfected using FUGENE as follows. 100 ng of DNA expressing SEQ ID NO: 4 and 10 ng of DNA expressing human muscarinic receptor 1 were combined with 0.4 μL of FUGENE and brought to a final volume of 50 μL using OPTIMEM serum free media and incubated for 20 mins at 25° C. then added to the cells. After 16 hours the cells were treated with a final concentration of 1 μM thapsigargin for 5 hours to induce ER stress. The cells were then washed 5× with 100 μL DPBS and 150 μL of DPBS was added to the wells. The cells were imaged using a Zeiss Axiovert fluorescence microscope using standard Green Fluorescent Protein (GFP) and Red Fluorescent Protein (RFP) excitation and emission filters. Images were obtained in both the red and green channels every 2 seconds for 100 seconds. A final concentration of 50 μM carbachol was added to the wells to stimulate Gq signaling after 20 seconds, releasing intracellular Ca^2+ stores for detection by the biosensor. The images were analyzed as follows. Cells were identified as either stressed or unstressed based on their green fluorescence intensity. The Ca^2+ signaling response upon Gq stimulation was monitored in the red fluorescence channel.

Data set [4] has as its system HEK293T cells. The data set is described as follows: Multiplex Ca2+ biosensor (SEQ ID NO: 4) in cells stressed by P23H rhodopsin mutant, carbachol stimulation. As to conditions: 50 μM, P23H rhodopsin mutant co-expressed. The procedure: In order to analyze the calcium response of cells expressing a mutant protein, HEK293T cells were transfected with both the nucleic acid construct described in FIG. 1 and a mutant rhodopsin protein (P23H). The P23H mutation in rhodopsin causes retinitis pigmentosa (Rivolta et al. 2002), an inherited form of blindness that develops gradually over the first decade of life.
The experiment in FIG. 4 was conducted the same as in FIG. 3 with the following modifications. 100 ng of a plasmid expressing the P23H rhodopsin mutation was co-transfected with the plasmid expressing SEQ ID NO: 4 and 10 ng of human muscarinic receptor 1. After 24 hours the cells were treated with 50 μM carbachol as described in Example 1 above, and the Ca^2+ signaling was monitored in the red fluorescence channel for cells identified as stressed or unstressed based on their green fluorescence intensity.

Data set [5] relates to iPSC-derived peripheral neurons. The data set is described as follows: Two-color stress sensor (SEQ ID NO: 6): percentage of ER-stressed cells after chemotherapeutic treatment. As to conditions: 24 hours of incubation. The source says: The two-color biosensor described in Example 5 above (RFP-GFP stress sensor; SEQ ID NO: 6) may be used to calculate the percent of cells undergoing ER stress, and may be used as measurement technique to detect side effects induced by chemotherapeutics. In order to determine the percentage of cells in population experiencing ER-stress following exposure to a ER-stress-inducing compound, iPSC-derived peripheral neurons were transduced with the two-color stress sensor described in Example 5 above. The cells were treated with the chemotherapeutic vincristine at concentrations of 0.0001 μM, 0.01 μM, and 0.1 μM. Measurement of the red fluorescence was used to identify transduced cells and measurement of green fluorescence identifies stressed cells. Stressed and unstressed cells were counted to quantify the percentage of stressed cells in the population.
Peri.4U peripheral neurons from Ncardia were plated onto 96-well plates according to the manufacturer's instructions. Cells were incubated for 2 days at 37° C. and 5% CO2 and the media was changed every 24 hours, using Ncardia neuro supplement media. […] Those cells that expressed both the constitutively expressed red nuclear marker and the green, stress induced, nuclear fluorescence were considered stressed, while those only expressing the red marker were considered unstressed. […]

On to `C/C=C(/C)C(=O)O[C@H]1C(C)=C2[C@H]([C@@H]1OC(=O)CCCCCCC)[C@@](C)(OC(C)=O)C[C@H](OC(=O)CCC)[C@@]1(O)[C@H]2OC(=O)[C@@]1(C)O` [thapsigargin], for which, in the data set with HEK293T cells [1] (1 μM), the “persistence of spliced sensor band (recovery from stress)” value is recorded as “disappears after 24 hours” and the “time of peak intensity of spliced sensor band post-treatment” value was 2.5 h. For the same compound, the “appearance of spliced version of the sensor (lower band)” value in the data set on HEK293T cells [1] (1 μM vs DMSO, 30 minutes, 2.5, 6 and 24 hours) is “appears only in the thapsigargin treated cells”. In addition, the “green stress induced fluorescence over time” value in the data set on HEK293T cells [2] is reported as “appears rapidly, then disappears by 24 hours”. The “mNeonGreen expression (ER stress marker)” value in the data set with HEK293T cells [3] (1 μM for 5 hours) is “the mNeonGreen protein due to the ER stress induced by the thapsigargin treatment”.
With `C[N+](C)(C)CCOC(N)=O` [carbachol], in the data set on HEK293T cells [3] (50 μM, stressed (mNeonGreen) vs unstressed cell), the “Ca2+ response in ER-stressed cells compared to surrounding healthy cells” value is recorded as “blunted, smaller amplitude response”. In the data set with HEK293T cells [3] (50 μM, thapsigargin-treated cells), the “red fluorescence of Ca2+ biosensor after treatment” value is listed as “visible increase in red fluorescence”. In addition, in the data set with HEK293T cells [4], the “release of intracellular Ca2+ stores, stressed vs unstressed cells” value is on record as “blunted in the stressed cells compared to the unstressed cells”.
Take `CC[C@]1(O)C[C@H]2CN(CCc3c([nH]c4ccccc34)[C@@](C(=O)OC)(c3cc4c(cc3OC)N(C=O)[C@H]3[C@@](O)(C(=O)OC)[C@H](OC(C)=O)[C@]5(CC)C=CCN6CC[C@]43[C@@H]65)C2)C1` [vincristine]: the “percentage of stressed cells compared to control treatment” value in data set [5] (0.01 μM, p<0.00011) is recorded as “statistically significant percentages of stressed cells”; in data set [5] (0.1 μM, p<2.3e−05), “statistically significant percentages of stressed cells”.
